Data published in the supplement of paper PMC10307832.

What was measured:
Assay in all cases: relative viability (nuclei count vs DMSO), 5 days (fraction); higher = more cells survive
Seliciclib + Decitabine = compound: CC[C@H](CO)Nc1nc(NCc2ccccc2)c2ncn(C(C)C)c2n1 [Seliciclib] + Nc1ncn([C@H]2C[C@H](O)[C@@H](CO)O2)c(=O)n1 [Decitabine] (partner 2 µM)
Outline: (§1)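 Lung cancer cell lines in 1536-well plates got either a single drug or a fixed anchor-drug dose together with five library-drug doses (not always all listed) in √10 steps, by pin tool, on the day after seeding. Nuclei were counted after 5 days, and relative viability is the treated-to-vehicle ratio of nuclei counts. Values are medians of duplicate plates.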

Seliciclib + Crizotinib = compound: CC[C@H](CO)Nc1nc(NCc2ccccc2)c2ncn(C(C)C)c2n1 [Seliciclib] + C[C@@H](Oc1cc(-c2cnn(C3CCNCC3)c2)cnc1N)c1c(Cl)ccc(F)c1Cl [Crizotinib] (partner 1 µM)
Outline: as §1

Seliciclib + Phenformin = compound: CC[C@H](CO)Nc1nc(NCc2ccccc2)c2ncn(C(C)C)c2n1 [Seliciclib] + N=C(N)NC(=N)NCCc1ccccc1 [Phenformin] (partner 250 µM)
Outline: as §1

Seliciclib + Navitoclax = compound: CC[C@H](CO)Nc1nc(NCc2ccccc2)c2ncn(C(C)C)c2n1 [Seliciclib] + CC1(C)CCC(c2ccc(Cl)cc2)=C(CN2CCN(c3ccc(C(=O)NS(=O)(=O)c4ccc(N[C@H](CCN5CCOCC5)CSc5ccccc5)c(S(=O)(=O)C(F)(F)F)c4)cc3)CC2)C1 [Navitoclax] (partner 0.5 µM)
Outline: as §1

Cell Line	relative viability (Seliciclib + Decitabine; first compound 0.08 µM)	relative viability (Seliciclib + Decitabine; first compound 0.253 µM)	relative viability (Seliciclib + Decitabine; first compound 0.8 µM)	relative viability (Seliciclib + Decitabine; first compound 2.53 µM)	relative viability (Seliciclib + Decitabine; first compound 8 µM)	relative viability (Seliciclib + Crizotinib; first compound 0.08 µM)	relative viability (Seliciclib + Crizotinib; first compound 0.253 µM)	relative viability (Seliciclib + Crizotinib; first compound 0.8 µM)	relative viability (Seliciclib + Crizotinib; first compound 2.53 µM)	relative viability (Seliciclib + Crizotinib; first compound 8 µM)	relative viability (Seliciclib + Phenformin; first compound 0.08 µM)	relative viability (Seliciclib + Phenformin; first compound 0.253 µM)	relative viability (Seliciclib + Phenformin; first compound 0.8 µM)	relative viability (Seliciclib + Phenformin; first compound 2.53 µM)	relative viability (Seliciclib + Phenformin; first compound 8 µM)	relative viability (Seliciclib + Navitoclax; first compound 0.08 µM)	relative viability (Seliciclib + Navitoclax; first compound 0.253 µM)	relative viability (Seliciclib + Navitoclax; first compound 0.8 µM)	relative viability (Seliciclib + Navitoclax; first compound 2.53 µM)	relative viability (Seliciclib + Navitoclax; first compound 8 µM)
NCI-H838	0.457	0.508	0.437	0.411	0.381	0.806	0.766	0.841	0.936	0.673	0.59	0.559	0.561	0.461	0.329	1.11	1.03	1.2	1.26	0.917
NCI-H1355	0.35	0.334	0.356	0.374	0.38	1.01	1.05	1.13	1.16	0.998	0.436	0.443	0.433	0.423	0.435	0.952	0.861	1.01	1.13	0.873
NCI-H1437	0.557	0.563	0.566	0.477	0.56	0.861	0.916	0.951	0.97	0.834	0.347	0.353	0.291	0.241	0.262	1.01	1.11	1.07	1.15	0.885
NCI-H1650	0.439	0.278	0.437	0.403	0.52	0.885	1.12	0.924	0.847	0.607	0.436	0.525	0.462	0.424	0.264	1.12	1.01	1.07	1.21	1.08
NCI-H1651	0.553	0.6	0.65	0.51	0.592	0.873	0.861	0.831	0.814	0.82	0.339	0.366	0.317	0.277	0.249	0.947	0.965	0.863	1.14	0.887
NCI-H1666	0.641	0.712	0.797	0.58	0.664	1.08	0.953	1.05	0.852	0.46	0.59	0.589	0.556	0.549	0.516	0.951	1.05	0.909	1.06	0.512
NCI-H1734	0.503	0.405	0.509	0.518	0.496	0.63	0.576	0.622	0.683	0.533	0.385	0.35	0.311	0.334	0.356	0.847	0.733	0.834	0.879	0.808
NCI-H1755	0.71	0.644	0.719	0.759	0.721	0.84	0.85	0.84	0.973	0.854	0.601	0.6	0.586	0.584	0.599	0.984	0.997	0.998	1.04	0.871
NCI-H1792	0.45	0.506	0.608		0.556	0.837	1.01	0.82	0.873	0.919	0.421	0.308	0.306		0.329	0.616	0.583	0.663	0.443	0.609
NCI-H1915	0.252	0.264	0.277	0.243	0.255	0.922	0.964	0.88	0.816	0.757	0.448	0.403	0.376	0.373	0.328	0.776	0.779	0.759	0.8	0.618
NCI-H1944	0.471	0.43	0.467	0.519	0.405	1.09	1.16	0.931	0.996	0.714	0.188	0.22	0.168	0.178	0.168	0.987	1.01	0.946	1.11	0.871
NCI-H1975	0.394	0.349	0.365	0.645	0.332	0.966	0.984	0.917	0.924	0.662	0.386	0.335	0.392	0.312	0.236	1	0.959	1.05	1.12	0.878
NCI-H1993	0.62	0.549	0.632	0.54	0.441	0.769	0.803	0.768	0.849	0.727	0.551	0.54	0.496	0.474	0.456	0.937	0.635	0.927	0.962	0.849
NCI-H2009	0.378	0.42	0.402	0.371	0.415	1.04	0.963	1.06	0.987	0.989	0.487	0.599	0.498	0.474	0.493	1.14	1.17	1.13	1.2	1.08
NCI-H2023	0.217	0.216	0.203	0.267	0.248	0.554	0.578	0.682	0.595	0.555	0.41	0.417	0.411	0.468	0.312	0.895	0.853	0.967	0.949	0.891
NCI-H2085	0.518	0.501	0.563	0.49	0.483	0.866	0.767	0.9	0.862	0.706	0.714	0.658	0.692	0.71	0.611	1.13	1.16	1.14	1.05	0.965
